Results from patent US10519109B2, “Glycopyrronium fatty acid salts and methods of making same” (QAAM PHARMACEUTICALS, LLC, priority 2015, dated 2019).
“And” between values parts separate entries of the source, which are not always exact repeats. Equal values may be shown once. Read-outs that look alike come from different tables or passages of the source.

Experiments:
[1] = potassium laurate solubility in various solvents (solvent added dropwise under sonication); assay type: physicochemical; conditions: thermodynamic from solid
Procedure: In order to select the reaction solvents and their optimized volumes, the solubility of potassium laurate in various solvents was checked by adding solvent to dissolve the solids under sonication. A vial was charged with potassium laurate (˜100 mg) and then solvent was added dropwise under sonication. The potassium laurate could not be dissolved with most solvents (200 vol.).

[2] = ~4 months at ambient conditions

Q: What does the source list for `CCCCCCCCCCCC(=O)[O-].[K+]` [potassium laurate]?
A: solubility ([1]; organic solvent or mixture, Acetone, 50° C.): < 5000 µg/mL; solubility ([1]; organic solvent or mixture, Acetone, room temperature, read-out: potassium laurate solubility At Room Temperature): < 5000 µg/mL; solubility ([1]; organic solvent or mixture, Butyl Acetate, 50° C.): < 5000 µg/mL; solubility ([1]; organic solvent or mixture, Butyl Acetate, room temperature, read-out: potassium laurate solubility At Room Temperature): < 5000 µg/mL; solubility ([1]; organic solvent or mixture, Ethanol, room temperature, read-out: potassium laurate solubility At Room Temperature): ~14000 µg/mL; solubility ([1]; organic solvent or mixture, Ethyl Acetate, 50° C.): < 5000 µg/mL; solubility ([1]; organic solvent or mixture, Ethyl Acetate, room temperature, read-out: potassium laurate solubility At Room Temperature): < 5000 µg/mL; solubility ([1]; organic solvent or mixture, IPA, 50° C.): < 5000 µg/mL; solubility ([1]; organic solvent or mixture, IPA, room temperature, read-out: potassium laurate solubility At Room Temperature): < 5000 µg/mL; solubility ([1]; organic solvent or mixture, Isopropyl Acetate, 50° C.): < 5000 µg/mL; solubility ([1]; organic solvent or mixture, Isopropyl Acetate, room temperature, read-out: potassium laurate solubility At Room Temperature): < 5000 µg/mL; solubility ([1]; organic solvent or mixture, MEK, 50° C.): < 5000 µg/mL; solubility ([1]; organic solvent or mixture, MEK, room temperature, read-out: potassium laurate solubility At Room Temperature): < 5000 µg/mL; solubility ([1]; organic solvent or mixture, MIBK, 50° C.): < 5000 µg/mL; solubility ([1]; organic solvent or mixture, MIBK, room temperature, read-out: potassium laurate solubility At Room Temperature): < 5000 µg/mL; solubility ([1]; organic solvent or mixture, Methanol, room temperature, read-out: potassium laurate solubility At Room Temperature): ~50000 µg/mL; solubility ([1]; organic solvent or mixture, Methyl Acetate, 50° C.): < 5000 µg/mL; solubility ([1]; organic solvent or mixture, Methyl Acetate, room temperature, read-out: potassium laurate solubility At Room Temperature): < 5000 µg/mL; solubility ([1]; Water, room temperature, read-out: potassium laurate solubility At Room Temperature): ~138000 µg/mL

Q: Which “HPLC Results Glycopyrronium” value (Expt. 1A: Me-THF Solution at RT over weekend) does the source give for `C[N+]1(C)CCC(OC(=O)C(O)(c2ccccc2)C2CCCC2)C1` (centres unmarked) [glycopyrronium laurate] here?
A: 87.72 AUC % and 87.72% AUC %

Q: And the “HPLC Results Glycopyrronium” value (Expt. 1B: Me-THF Solution at 50° C. over weekend, Bottom layer)?
A: 49.47% AUC %

Q: And the “HPLC Results Glycopyrronium” value (Expt. 1B: Me-THF Solution at 50° C. over weekend, Top layer)?
A: 57 AUC % and 57.13% AUC %

Q: What about the “HPLC Results Glycopyrronium” value (Expt. 2A: Me-THF Solution in the presence of Lauric Acid at RT over weekend) of the same compound?
A: 89.44% AUC %

Q: And the “HPLC Results Glycopyrronium” value (Expt. 2B: Me-THF Solution in the presence of Lauric Acid at 50° C. over weekend, Bottom layer)?
A: 65.60% AUC %

Q: And the “HPLC Results Glycopyrronium” value (Expt. 2B: Me-THF Solution in the presence of Lauric Acid at 50° C. over weekend, Top layer)?
A: 69.58% AUC %

Q: Which degradation over time [2] does the source give for `C[N+]1(C)CCC(OC(=O)C(O)(c2ccccc2)C2CCCC2)C1` (centres unmarked) [glycopyrronium stearate] here?
A: degradation was observed
